Results as given in ChEMBL document CHEMBL6178002, “Identification of a RANKL/TNF-α Dual-Inhibitor as a Potential Disease-Modifying Agent for the Treatment of Knee Osteoarthritis” (J Med Chem, 2025).
The source made the active and inactive calls. The calls are words filed in the database; no cut-off is given here.

Tests used:
[1] = Cytotoxicity against bone marrow macrophage cells (unknown origin) assessed as cell viability at 10 uM incubated for 24 hrs by CCK8 assay relative to control; assay type: toxicity, cell-based; details: read-out: Activity
[2] = Inhibition of RANKL/M-CSF-induced osteoclastogenesis in male C57/BL6 mouse bone marrow cells at 1 uM incubated for 5 to 7 days by TRAP staining based analysis relative to control; assay type: functional; details: C57/BL6, Bone marrow cell, time 5-7 day
Bone marrow cell = experiment: Inhibition of RANKL/M-CSF-induced osteoclastogenesis in male C57/BL6 mouse bone marrow cells at 1 uM by TRAP staining based analysis; assay type: functional; details: time 1-7 day
Bone marrow macrophage [3] = experiment: Inhibition of RANKL/M-CSF-induced osteoclastogenesis in bone marrow macrophage cells (unknown origin) assessed as decrease in c-Fos mRNA level incubated for 48 hrs by RT-qPCR analysis; assay type: functional, cell-based; details: dose <= 5.0 µM
Bone marrow macrophage [4] = experiment: Inhibition of RANKL/M-CSF-induced osteoclastogenesis in bone marrow macrophage cells (unknown origin) assessed as decrease in TRAP mRNA level incubated for 48 hrs by RT-qPCR analysis; assay type: functional, cell-based; details: dose <= 5.0 µM
Bone marrow macrophage [5] = experiment: Inhibition of RANKL/M-CSF-induced osteoclastogenesis in bone marrow macrophage cells (unknown origin) assessed as decrease in cathepsin K mRNA level incubated for 48 hrs by RT-qPCR analysis; assay type: functional, cell-based; details: dose <= 5.0 µM
Bone marrow macrophage [6] = experiment: Inhibition of RANKL/M-CSF-induced osteoclastogenesis in bone marrow macrophage cells (unknown origin) assessed as decrease in NFATC1 mRNA level at 1 uM by RT-qPCR analysis; assay type: functional, cell-based; details: time <= 5.0 day
Bone marrow macrophage [7] = experiment: Inhibition of RANKL/M-CSF-induced osteoclastogenesis in bone marrow macrophage cells (unknown origin) assessed as decrease in NFATC1 level incubated for 48 hrs by Western blot analysis; assay type: functional, cell-based; details: dose <= 2.5 µM
Bone marrow macrophage [8] = experiment: Inhibition of RANKL/M-CSF-induced osteoclastogenesis in bone marrow macrophage cells (unknown origin) assessed as decrease in c-Fos level incubated for 48 hrs by Western blot analysis; assay type: functional, cell-based; details: dose <= 2.5 µM
Bone marrow macrophage [9] = experiment: Inhibition of RANKL/M-CSF-induced osteoclastogenesis in bone marrow macrophage cells (unknown origin) assessed as decrease in TRAP level incubated for 48 hrs by Western blot analysis; assay type: functional, cell-based; details: dose <= 2.5 µM
Bone marrow macrophage [10] = experiment: Inhibition of RANKL/M-CSF-induced osteoclastogenesis in bone marrow macrophage cells (unknown origin) assessed as decrease in c-Fos level at 1 uM by Western blot analysis; assay type: functional, cell-based; details: time <= 5.0 day
Bone marrow macrophage [11] = experiment: Inhibition of RANKL/M-CSF-induced osteoclastogenesis in bone marrow macrophage cells (unknown origin) assessed as decrease in cathepsin K level incubated for 48 hrs by Western blot analysis; assay type: functional, cell-based; details: dose <= 2.5 µM
Bone marrow macrophage [12] = experiment: Inhibition of RANKL/M-CSF-induced osteoclastogenesis in bone marrow macrophage cells (unknown origin) assessed as decrease in MMP-9 level incubated for 48 hrs by Western blot analysis; assay type: functional, cell-based; details: dose <= 2.5 µM
Bone marrow macrophage [13] = experiment: Inhibition of RANKL/M-CSF-induced osteoclastogenesis in bone marrow macrophage cells (unknown origin) assessed as decrease in MMP-9 level at 1 uM by Western blot analysis; assay type: functional, cell-based; details: time <= 5.0 day
Tumor necrosis factor = Tumor necrosis factor (Homo sapiens, UniProt P01375); experiment: Binding affinity to CM5 chip-immobilized human TNF-alpha assessed as dissociation constant by SPR analysis
RAW264.7 [14] = experiment: Anti-inflammatory activity in LPS-stimulated mouse RAW264.7 cells assessed as decrease in IL-1beta level at 10 uM preincubated for 24 hrs followed by LPS addition measured after 2 hrs by RT-qPCR analysis; assay type: functional, cell-based; details: time 26.0 hrs
RAW264.7 [15] = experiment: Anti-inflammatory activity in LPS-stimulated mouse RAW264.7 cells assessed as decrease in IL-18 level at 10 uM preincubated for 24 hrs followed by LPS addition measured after 2 hrs by RT-qPCR analysis; assay type: functional, cell-based; details: time 26.0 hrs
RAW264.7 [16] = experiment: Inhibition of NFkappaB activation in mouse RAW264.7 cells assessed as reduction in TNF-alpha-induced NF-kappaB p65 phosphorylation at 10 uM preincubated for 12 hrs followed by TNF-alpha addition measured after 2 hrs by immunofluorescence based analysis; assay type: cell-based; details: time 14.0 hrs
RAW264.7 [17] = experiment: Inhibition of NFkappaB activation in mouse RAW264.7 cells assessed as reduction in TNF-alpha-induced NF-kappaB p65 phosphorylation at 1 to 10 uM preincubated for 12 hrs followed by LPS/TNF-alpha addition measured after 2 hrs by Western blot analysis; assay type: cell-based; details: dose 1-10 µM, time 14.0 hrs
Primary chondrocyte [18] = experiment: Anti-inflammatory activity in IL-1beta-treated C57/BL6 mouse primary chondrocytes assessed as decrease in MMP-9 mRNA level at 10 uM incubated for 24 hrs by RT-qPCR analysis; assay type: functional, cell-based
Primary chondrocyte [19] = experiment: Anti-inflammatory activity in IL-1beta-treated C57/BL6 mouse primary chondrocytes assessed as decrease in MMP-13 mRNA level at 10 uM incubated for 24 hrs by RT-qPCR analysis; assay type: functional, cell-based
[20] = Cmax in male Sprague-Dawley rat at 1 mg/kg, iv measured for 0.25 to 24 hrs; assay type: ADME, organism-based; details: in vivo, time 0.25-24 hrs
[21] = Half life in male Sprague-Dawley rat at 1 mg/kg, iv measured for 0.25 to 24 hrs; assay type: ADME, organism-based; details: in vivo, time 0.25-24 hrs
[22] = Clearance in male Sprague-Dawley rat at 1 mg/kg, iv measured for 0.25 to 24 hrs; assay type: ADME, organism-based; details: in vivo, time 0.25-24 hrs
[23] = Cmax in male Sprague-Dawley rat at 10 mg/kg, po measured for 0.25 to 24 hrs; assay type: ADME, organism-based; details: in vivo, time 0.25-24 hrs
[24] = Tmax in male Sprague-Dawley rat at 10 mg/kg, po measured for 0.25 to 24 hrs; assay type: ADME, organism-based; details: in vivo, time 0.25-24 hrs
[25] = AUC (0 to t) in male Sprague-Dawley rat at 10 mg/kg, po measured for 0.25 to 24 hrs; assay type: ADME, organism-based; details: in vivo, time 0.25-24 hrs
[26] = Half life in male Sprague-Dawley rat at 10 mg/kg, po measured for 0.25 to 24 hrs; assay type: ADME, organism-based; details: in vivo, time 0.25-24 hrs
[27] = Oral bioavailability in male Sprague-Dawley rat at 1 mg/kg, iv measured for 0.25 to 24 hrs; assay type: ADME, organism-based; details: in vivo, time 0.25-24 hrs
Rattus norvegicus [28] = organism: Rattus norvegicus; experiment: Anti-inflammatory activity in male Sprague-Dawley rat model of ACLT-induced osteoarthritis assessed as reduction in articular cartilage erosion at 50 to 100 ug, IART treated weekly once for 8 weeks by H and E/S-O/FG staining based analysis; assay type: functional, organism-based; details: dose 50-100 µg
Rattus norvegicus [29] = organism: Rattus norvegicus; experiment: Anti-inflammatory activity in male Sprague-Dawley rat model of ACLT-induced osteoarthritis assessed as reduction in OARSI score at 50 to 100 ug, IART treated weekly once for 8 weeks; assay type: functional, organism-based; details: dose 50-100 µg
Rattus norvegicus [30] = organism: Rattus norvegicus; experiment: Anti-inflammatory activity in male Sprague-Dawley rat model of ACLT-induced osteoarthritis assessed as reduction in surface temperature in arthritic joint at 50 to 100 ug, IART treated weekly once for 8 weeks by infrared imaging analysis; assay type: functional, organism-based; details: dose 50-100 µg
Rattus norvegicus [31] = organism: Rattus norvegicus; experiment: Anti-inflammatory activity in male Sprague-Dawley rat model of ACLT-induced osteoarthritis assessed as increase in BV/TV level at 50 to 100 ug, IART treated weekly once for 8 weeks by micro-CT analysis; assay type: functional, organism-based; details: dose 50-100 µg
Rattus norvegicus [32] = organism: Rattus norvegicus; experiment: Anti-inflammatory activity in male Sprague-Dawley rat model of ACLT-induced osteoarthritis assessed as increase in Tb.N level at 50 to 100 ug, IART treated weekly once for 8 weeks by micro-CT analysis; assay type: functional, organism-based; details: dose 50-100 µg

Tumor necrosis factor, sequence (P01375 whole entry): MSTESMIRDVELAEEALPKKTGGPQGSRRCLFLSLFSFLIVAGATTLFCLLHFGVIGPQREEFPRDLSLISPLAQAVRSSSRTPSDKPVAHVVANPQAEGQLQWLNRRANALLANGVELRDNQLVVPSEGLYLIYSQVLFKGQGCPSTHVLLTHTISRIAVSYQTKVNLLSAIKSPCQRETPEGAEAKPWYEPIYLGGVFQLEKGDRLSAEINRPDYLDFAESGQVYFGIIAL

Cc1cccc(C)c1NC(=O)[C@@H]1Cc2c([nH]c3ccccc23)C2(CN(c3ccccc3)C2)N1
viability at 24 h, 10 µM [1]: 110%
inhibition at 1 µM [2]: 98.6%
inhibition (Bone marrow cell): Time-dependent-effect
inhibition (Bone marrow macrophage [3]): Dose-dependent-effect
inhibition (Bone marrow macrophage [4]): Dose-dependent-effect
inhibition (Bone marrow macrophage [5]): Dose-dependent-effect
inhibition (Bone marrow macrophage [6]): Time-dependent-effect
inhibition (Bone marrow macrophage [7]): Dose-dependent-effect
inhibition (Bone marrow macrophage [8]): Dose-dependent-effect
inhibition (Bone marrow macrophage [9]): Dose-dependent-effect
inhibition (Bone marrow macrophage [10]): Time-dependent-effect
inhibition (Bone marrow macrophage [11]): Dose-dependent-effect
inhibition (Bone marrow macrophage [12]): Dose-dependent-effect
inhibition (Bone marrow macrophage [13]): Time-dependent-effect
Kd (Tumor necrosis factor): 18.6 µM
Activity (RAW264.7 [14]): Active
Activity (RAW264.7 [15]): Active
inhibition (RAW264.7 [16]): Active
inhibition (RAW264.7 [17]): Active
Activity (Primary chondrocyte [18]): Active
Activity (Primary chondrocyte [19]): Active
Cmax [20]: 338 ng/mL
half-life [21]: 1.27 h
clearance [22]: 71.7 mL/min/kg
Cmax [23]: 780 ng/mL
Tmax [24]: 0.5 h
AUC(0-t) [25]: 1620 ng·h/mL
half-life [26]: 5.07 h
bioavailability [27]: 71.4%
Activity (Rattus norvegicus [28]): Active
Activity (Rattus norvegicus [29]): Active
Activity (Rattus norvegicus [30]): Active
Activity (Rattus norvegicus [31]): Active
Activity (Rattus norvegicus [32]): Active
